Data from US12172995B2, “Substituted indole and indazole compounds” (BRISTOL-MYERS SQUIBB COMPANY, priority 2018, dated 2024).

Columns and labels:
Format in all cases: cell-based
human TLR7 = target: T1, human TLR7 (Homo sapiens, UniProt Q9NYK1); experiment: TLR7 inhibition reporter assay (HEK-Blue SEAP); conditions: HEK-Blue cells overexpressing human TLR7, stimulated with gardiquimod 7.5 μM, 22 hour incubation
T1 construct: host or cells: HEK-Blue cells
T1 sequence (Q9NYK1 27-1049): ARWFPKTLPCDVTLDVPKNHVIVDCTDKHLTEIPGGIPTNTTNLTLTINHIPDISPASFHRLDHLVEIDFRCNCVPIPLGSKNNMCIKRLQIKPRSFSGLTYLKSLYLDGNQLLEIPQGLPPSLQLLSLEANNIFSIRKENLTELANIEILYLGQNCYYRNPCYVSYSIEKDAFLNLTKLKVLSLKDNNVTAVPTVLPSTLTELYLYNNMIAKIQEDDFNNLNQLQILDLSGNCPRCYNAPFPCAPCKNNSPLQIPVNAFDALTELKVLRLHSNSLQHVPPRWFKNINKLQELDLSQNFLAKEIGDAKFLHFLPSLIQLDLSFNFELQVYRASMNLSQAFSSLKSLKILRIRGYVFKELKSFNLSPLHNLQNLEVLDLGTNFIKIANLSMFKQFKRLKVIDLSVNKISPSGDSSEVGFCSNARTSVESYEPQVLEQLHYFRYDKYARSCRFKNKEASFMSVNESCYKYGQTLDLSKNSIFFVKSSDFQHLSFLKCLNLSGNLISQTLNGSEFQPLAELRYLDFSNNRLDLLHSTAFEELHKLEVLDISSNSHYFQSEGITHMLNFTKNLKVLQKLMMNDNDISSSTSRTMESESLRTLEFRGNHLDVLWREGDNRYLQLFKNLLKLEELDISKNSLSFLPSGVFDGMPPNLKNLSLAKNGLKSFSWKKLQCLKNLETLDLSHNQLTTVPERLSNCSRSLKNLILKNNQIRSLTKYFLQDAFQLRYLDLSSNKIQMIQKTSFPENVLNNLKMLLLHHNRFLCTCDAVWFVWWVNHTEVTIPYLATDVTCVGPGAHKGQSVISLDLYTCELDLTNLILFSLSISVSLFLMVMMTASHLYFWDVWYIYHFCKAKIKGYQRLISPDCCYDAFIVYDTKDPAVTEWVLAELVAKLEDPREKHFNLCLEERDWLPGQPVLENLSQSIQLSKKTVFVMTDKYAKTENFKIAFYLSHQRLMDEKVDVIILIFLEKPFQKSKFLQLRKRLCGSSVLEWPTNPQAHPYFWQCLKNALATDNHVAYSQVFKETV
In short: (§1)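 HEK-Blue cells overexpressing human TLR7, TLR8 or TLR9 with an NF-κB/AP-1-driven SEAP reporter were pre-treated 30 min at room temperature with compound (0.05 nM to 50 μM), then stimulated with gardiquimod 7.5 μM (TLR7), R848 15.9 μM (TLR8) or ODN2006 5 nM (TLR9). SEAP measured after 22 h at 37° C; inhibition normalized between agonist-plus-DMSO and reference-inhibitor wells.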

human TLR8 = target: T2, human TLR8 (Homo sapiens, UniProt Q9NR97); experiment: TLR8 inhibition reporter assay (HEK-Blue SEAP); conditions: HEK-Blue cells overexpressing human TLR8, stimulated with R848 15.9 μM, 22 hour incubation
T2 construct: host or cells: HEK-Blue cells
T2 sequence (Q9NR97 27-1041): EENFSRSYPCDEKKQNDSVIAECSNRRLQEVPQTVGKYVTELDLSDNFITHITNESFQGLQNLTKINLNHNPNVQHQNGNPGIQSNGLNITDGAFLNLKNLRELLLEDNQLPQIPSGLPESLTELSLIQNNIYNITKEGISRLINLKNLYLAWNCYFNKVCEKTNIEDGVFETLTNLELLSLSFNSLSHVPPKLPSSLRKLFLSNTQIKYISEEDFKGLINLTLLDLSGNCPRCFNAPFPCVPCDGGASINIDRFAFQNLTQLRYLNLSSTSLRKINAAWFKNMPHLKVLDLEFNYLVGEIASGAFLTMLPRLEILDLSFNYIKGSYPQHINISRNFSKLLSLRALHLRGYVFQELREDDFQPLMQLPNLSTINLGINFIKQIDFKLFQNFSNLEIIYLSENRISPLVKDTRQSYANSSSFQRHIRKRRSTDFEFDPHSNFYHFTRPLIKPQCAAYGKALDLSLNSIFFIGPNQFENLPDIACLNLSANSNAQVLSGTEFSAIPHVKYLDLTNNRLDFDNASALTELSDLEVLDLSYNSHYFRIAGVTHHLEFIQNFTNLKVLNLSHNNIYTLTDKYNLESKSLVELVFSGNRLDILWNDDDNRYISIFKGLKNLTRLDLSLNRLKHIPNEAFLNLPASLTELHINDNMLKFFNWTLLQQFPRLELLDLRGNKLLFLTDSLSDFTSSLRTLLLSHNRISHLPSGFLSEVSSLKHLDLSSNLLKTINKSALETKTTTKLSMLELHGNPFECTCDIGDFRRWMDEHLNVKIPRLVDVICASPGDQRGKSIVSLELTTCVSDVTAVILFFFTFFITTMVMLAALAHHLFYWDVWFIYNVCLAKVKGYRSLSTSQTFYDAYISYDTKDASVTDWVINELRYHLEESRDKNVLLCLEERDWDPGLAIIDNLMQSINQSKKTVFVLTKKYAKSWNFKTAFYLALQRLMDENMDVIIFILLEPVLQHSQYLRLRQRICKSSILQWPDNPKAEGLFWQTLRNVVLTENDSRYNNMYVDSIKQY
In short: as §1

human TLR9 = target: T3, human TLR9 (Homo sapiens, UniProt Q9NR96); experiment: TLR9 inhibition reporter assay (HEK-Blue SEAP); conditions: HEK-Blue cells overexpressing human TLR9, stimulated with ODN2006 5 nM, 22 hour incubation
T3 construct: host or cells: HEK-Blue cells
T3 sequence (Q9NR96 26-1032): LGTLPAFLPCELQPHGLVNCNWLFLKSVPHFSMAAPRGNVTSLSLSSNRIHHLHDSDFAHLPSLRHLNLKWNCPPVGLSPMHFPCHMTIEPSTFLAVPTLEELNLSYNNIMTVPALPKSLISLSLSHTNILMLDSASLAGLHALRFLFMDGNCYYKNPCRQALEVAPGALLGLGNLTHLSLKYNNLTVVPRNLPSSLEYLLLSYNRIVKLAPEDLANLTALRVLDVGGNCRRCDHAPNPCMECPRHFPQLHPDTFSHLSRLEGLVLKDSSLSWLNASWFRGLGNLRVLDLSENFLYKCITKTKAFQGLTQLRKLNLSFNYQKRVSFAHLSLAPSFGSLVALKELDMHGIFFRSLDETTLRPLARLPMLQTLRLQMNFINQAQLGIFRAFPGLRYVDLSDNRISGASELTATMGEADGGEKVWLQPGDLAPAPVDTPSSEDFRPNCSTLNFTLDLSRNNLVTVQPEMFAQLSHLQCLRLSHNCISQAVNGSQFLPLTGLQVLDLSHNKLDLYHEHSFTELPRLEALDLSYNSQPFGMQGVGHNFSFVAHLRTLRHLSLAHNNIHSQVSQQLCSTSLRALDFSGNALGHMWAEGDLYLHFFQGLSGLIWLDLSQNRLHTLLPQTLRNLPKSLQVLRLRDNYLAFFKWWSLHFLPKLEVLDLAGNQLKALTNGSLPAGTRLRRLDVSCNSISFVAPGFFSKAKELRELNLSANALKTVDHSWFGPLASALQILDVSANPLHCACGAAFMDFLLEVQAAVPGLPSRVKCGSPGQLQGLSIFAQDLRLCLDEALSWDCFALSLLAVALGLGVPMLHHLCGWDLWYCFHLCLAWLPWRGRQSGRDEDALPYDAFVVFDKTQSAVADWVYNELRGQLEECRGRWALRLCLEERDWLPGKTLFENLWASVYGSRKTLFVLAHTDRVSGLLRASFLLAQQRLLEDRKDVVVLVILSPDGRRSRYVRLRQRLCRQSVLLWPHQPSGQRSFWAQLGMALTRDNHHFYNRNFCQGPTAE
In short: as §1

Cc1cc(-c2cc(C)c3ncnn3c2)cc2[nH]nc(C3CCCN(C4CCOCC4)C3)c12 (stereo not drawn) [Example 60, 8-methyl-6-(4-methyl-3-(1-(tetrahydro-2H-pyran-4-yl)piperidin-3-yl)-1H-indazol-6-yl)-[1,2,4]triazolo[1,5-a]pyridine]
IC50 (human TLR7): 0.0793 µM | IC50 (human TLR8): 0.0622 µM | IC50 (human TLR9): 4.25 µM

Cc1cc(-c2cc(C)c3ncnn3c2)cc2[nH]nc(C3CCCN(C)C3)c12 (stereo not drawn) [Example 61, 8-methyl-6-(4-methyl-3-(1-methylpiperidin-3-yl)-1H-indazol-6-yl)-[1,2,4]triazolo[1,5-a]pyridine]
IC50 (human TLR7): 0.0135 µM | IC50 (human TLR8): 0.0195 µM | IC50 (human TLR9): 3.34 µM

COc1ccc(-c2cc3[nH]nc(C4CCCNC4)c3cc2C)cc1OC (stereo not drawn) [Example 62, 6-(3,4-dimethoxyphenyl)-5-methyl-3-(piperidin-3-yl)-1H-indazole]
IC50 (human TLR7): 0.824 µM | IC50 (human TLR8): 0.0052 µM | IC50 (human TLR9): 3.2 µM

COc1cc(-c2cc3[nH]ncc3cc2C)cn2ncnc12 [Example 64, 8-methoxy-6-(5-methyl-1H-indazol-6-yl)-[1,2,4]triazolo[1,5-a]pyridine]
IC50 (human TLR7): 0.905 µM | IC50 (human TLR8): 0.0418 µM | IC50 (human TLR9): 9.04 µM

Cc1cc(-c2cc(C)c3ncnn3c2)cc2[nH]ncc12 [Example 65, 8-methyl-6-(4-methyl-1H-indazol-6-yl)-[1,2,4]triazolo[1,5-a]pyridine]
IC50 (human TLR7): 0.219 µM | IC50 (human TLR8): 0.047 µM | IC50 (human TLR9): ≥ 50 µM

COc1cc(-c2cc(C)c3cn[nH]c3c2)cn2ncnc12 [Example 66, 8-methoxy-6-(4-methyl-1H-indazol-6-yl)-[1,2,4]triazolo[1,5-a] pyridine]
IC50 (human TLR7): 0.218 µM | IC50 (human TLR8): 0.0454 µM | IC50 (human TLR9): 8.84 µM

Cc1cc2c(C3CCN(CC(C)(C)O)CC3)n[nH]c2cc1-c1cc(C)c2ncnn2c1 [Example 67, 2-methyl-1-(4-(5-methyl-6-(8-methyl-[1,2,4]triazolo[1,5-a]pyridin-6-yl)-1H-indazol-3-yl)piperidin-1-yl)propan-2-ol]
IC50 (human TLR7): 0.0238 µM | IC50 (human TLR8): 0.0009 µM | IC50 (human TLR9): 3.96 µM

Cc1cc2c(C3CCN(CCS(C)(=O)=O)CC3)n[nH]c2cc1-c1cc(C)c2ncnn2c1 [Example 68, 8-methyl-6-(5-methyl-3-(1-(2-(methylsulfonyl)ethyl)piperidin-4-yl)-1H-indazol-6-yl)-[1,2,4]triazolo[1,5-a]pyridine]
IC50 (human TLR7): 0.068 µM | IC50 (human TLR8): 0.0025 µM | IC50 (human TLR9): 13 µM

Cc1cc2c(C3CCN(CCNS(C)(=O)=O)CC3)n[nH]c2cc1-c1cc(C)c2ncnn2c1 [Example 69, N-(2-(4-(5-methyl-6-(8-methyl-[1,2,4]triazolo[1,5-a]pyridin-6-yl)-1H-indazol-3-yl)piperidin-1-yl)ethyl) methanesulfonamide]
IC50 (human TLR7): 0.018 µM | IC50 (human TLR8): 0.0014 µM | IC50 (human TLR9): 1.31 µM

Cc1cc2c(C3CCN(CC(N)=O)CC3)n[nH]c2cc1-c1cc(C)c2ncnn2c1 [Example 70, 2-(4-(5-methyl-6-(8-methyl-[1,2,4]triazolo[1,5-a]pyridin-6-yl)-1H-indazol-3-yl)piperidin-1-yl)acetamide]
IC50 (human TLR7): 0.0183 µM | IC50 (human TLR8): 0.0014 µM | IC50 (human TLR9): 6.21 µM

Cc1cc2c(C3CCN(CC#N)CC3)n[nH]c2cc1-c1cc(C)c2ncnn2c1 [Example 71, 2-(4-(5-methyl-6-(8-methyl-[1,2,4]triazolo[1,5-a]pyridin-6-yl)-1H-indazol-3-yl)piperidin-1-yl)acetonitrile]
IC50 (human TLR7): 0.0098 µM | IC50 (human TLR8): 0.0033 µM | IC50 (human TLR9): 1.37 µM

Cc1cc2c(C3CCN(CCC#N)CC3)n[nH]c2cc1-c1cc(C)c2ncnn2c1 [Example 72, 3-(4-(5-methyl-6-(8-methyl-[1,2,4]triazolo[1,5-a]pyridin-6-yl)-1H-indazol-3-yl)piperidin-1-yl)propanenitrile]
IC50 (human TLR7): 0.0508 µM | IC50 (human TLR8): 0.0023 µM | IC50 (human TLR9): 11.2 µM

Cc1cc2c(C3CCN(C4COC4)CC3)n[nH]c2cc1-c1cc(C)c2ncnn2c1 [Example 73, 8-methyl-6-(5-methyl-3-(1-(oxetan-3-yl)piperidin-4-yl)-1H-indazol-6-yl)-[1,2,4] triazolo[1,5-a]pyridine]
IC50 (human TLR7): 0.0523 µM | IC50 (human TLR8): 0.0043 µM | IC50 (human TLR9): 9.07 µM

Cc1cc2c(C3CCNCC3)n[nH]c2cc1-c1cc(C)c2nnnn2c1 [Example 74, 8-methyl-6-(5-methyl-3-(piperidin-4-yl)-1H-indazol-6-yl) tetrazolo[1,5-a]pyridine]
IC50 (human TLR7): 0.0493 µM | IC50 (human TLR8): 0.0155 µM | IC50 (human TLR9): 4.94 µM

Cc1cc(-c2cc(C)c3ncnn3c2)cc2[nH]nc(C3CCN(C(=O)CN(C)C)CC3)c12 [Example 75, 2-(dimethylamino)-1-(4-(4-methyl-6-(8-methyl-[1,2,4]triazolo[1,5-a]pyridin-6-yl)-1H-indazol-3-yl)piperidin-1-yl)ethan-1-one]
IC50 (human TLR7): 0.0072 µM | IC50 (human TLR8): 0.0141 µM | IC50 (human TLR9): 1.92 µM
